According to US12195490B2, “STRAD-binding agents and uses thereof” (The Regents of the University of California, priority 2020, dated 2025):

Target: T1, LKB1 (Homo sapiens, UniProt Q15831+Q7RTN6)
T1 sequence (Q15831 1-433): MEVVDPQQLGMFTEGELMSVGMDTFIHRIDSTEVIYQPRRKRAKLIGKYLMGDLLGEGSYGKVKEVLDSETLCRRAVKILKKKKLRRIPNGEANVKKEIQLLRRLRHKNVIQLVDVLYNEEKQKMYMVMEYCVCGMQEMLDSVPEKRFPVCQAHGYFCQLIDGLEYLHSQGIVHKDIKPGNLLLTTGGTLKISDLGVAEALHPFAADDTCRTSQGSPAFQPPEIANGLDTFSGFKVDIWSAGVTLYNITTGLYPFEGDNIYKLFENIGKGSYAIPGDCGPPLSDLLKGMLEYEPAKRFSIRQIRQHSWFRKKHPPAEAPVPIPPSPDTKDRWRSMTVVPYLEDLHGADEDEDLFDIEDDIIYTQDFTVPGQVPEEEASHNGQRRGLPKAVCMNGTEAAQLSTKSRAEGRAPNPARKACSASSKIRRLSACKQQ
T1 sequence (Q7RTN6 1-431): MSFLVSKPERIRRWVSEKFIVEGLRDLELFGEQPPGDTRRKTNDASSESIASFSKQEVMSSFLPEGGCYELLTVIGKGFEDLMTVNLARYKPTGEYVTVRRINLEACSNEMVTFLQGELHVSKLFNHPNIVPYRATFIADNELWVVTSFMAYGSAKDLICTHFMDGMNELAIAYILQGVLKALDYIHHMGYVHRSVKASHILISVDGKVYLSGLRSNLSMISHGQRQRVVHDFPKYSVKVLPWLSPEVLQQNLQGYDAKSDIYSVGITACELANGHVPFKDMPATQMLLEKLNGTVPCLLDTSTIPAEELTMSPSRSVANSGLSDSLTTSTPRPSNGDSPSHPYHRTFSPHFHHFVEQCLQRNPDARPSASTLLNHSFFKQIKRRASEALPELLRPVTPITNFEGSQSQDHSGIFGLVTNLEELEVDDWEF
T1 sequence (Q9Y376 1-341 partner): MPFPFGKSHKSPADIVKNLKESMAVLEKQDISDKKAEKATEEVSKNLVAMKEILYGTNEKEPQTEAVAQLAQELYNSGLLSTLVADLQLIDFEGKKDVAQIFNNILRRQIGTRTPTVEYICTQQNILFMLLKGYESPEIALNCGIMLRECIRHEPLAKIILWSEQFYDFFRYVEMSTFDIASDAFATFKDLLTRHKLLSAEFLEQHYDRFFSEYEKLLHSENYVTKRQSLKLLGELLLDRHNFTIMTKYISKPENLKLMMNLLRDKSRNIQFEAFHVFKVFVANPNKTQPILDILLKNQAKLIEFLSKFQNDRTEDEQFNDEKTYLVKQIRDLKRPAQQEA
Test: in vitro LKB1 functional activity
Format: biochemical
Details: APA analogs

Structure (SMILES) | LKB1 % Act. Increase
CC(=O)NS(=O)(=O)c1ccc(NC(=O)c2nc(-c3ccc(N4CCN(C)CC4)cc3)cnc2N)cc1 [SU20668-0347, N-(4-(N-acetylsulfamoyl)phenyl)-3-amino-6-(4-(4-methylpiperazin-1-yl)phenyl)pyrazine-2-carboxamide] | C (C=199-1000%)
CC(=O)NS(=O)(=O)c1ccc(NC(=O)c2nc(-c3ccc(CO)cc3)cnc2N)cc1 [SU20668-0348, N-(4-(N-acetylsulfamoyl)phenyl)-3-amino-6-(4-(hydroxymethyl)phenyl)pyrazine-2-carboxamide] | C (C=199-1000%)
CC(=O)NS(=O)(=O)c1ccc(NC(=O)c2nc(-c3cccc(N)c3)cnc2N)cc1 [SU20668-0350, N-(4-(N-acetylsulfamoyl)phenyl)-3-amino-6-(3-aminophenyl)pyrazine-2-carboxamide] | D (D=<1000%)
CC(=O)NS(=O)(=O)c1ccc(NC(=O)c2nc(-c3ccc(S(N)(=O)=O)cc3)cnc2N)cc1 [SU20668-0351, N-(4-(N-acetylsulfamoyl)phenyl)-3-amino-6-(4-sulfamoylphenyl)pyrazine-2-carboxamide] | C (C=199-1000%)
CC(=O)NS(=O)(=O)c1ccc(NC(=O)c2nc(-c3cc[nH]n3)cnc2N)cc1 [SU20668-0352, N-(4-(N-acetylsulfamoyl)phenyl)-3-amino-6-(1H-pyrazol-3-yl)pyrazine-2-carboxamide] | C (C=199-1000%)
Cc1ccc(-c2cnc(N)c(C(=O)Nc3ccc(S(=O)(=O)NC(=O)CCOCc4ccccc4)cc3)n2)cc1 [SU20668-0368, 3-amino-N-(4-(N-(3-(benzyloxy)propanoyl)sulfamoyl)phenyl)-6-p-tolylpyrazine-2-carboxamide] | D (D=<1000%)
CC(=O)NS(=O)(=O)c1ccc(NC(=O)c2nc(-c3cnc(C)nc3)cnc2N)cc1 [SU20668-0369, N-(4-(N-acetylsulfamoyl)phenyl)-3-amino-6-(2-methylpyrimidin-5-yl)pyrazine-2-carboxamide] | C (C=199-1000%)
CC(=O)NS(=O)(=O)c1ccc(NC(=O)c2nc(-c3cnc(N)nc3)cnc2N)cc1 [SU20668-0372, N-(4-(N-acetylsulfamoyl)phenyl)-3-amino-6-(2-aminopyrimidin-5-yl)pyrazine-2-carboxamide] | D (D=<1000%)
CCS(=O)(=O)c1cccc(-c2cnc(N)c(C(=O)Nc3ccc(S(=O)(=O)NC(C)=O)cc3)n2)c1 [SU20668-0373, N-(4-(N-acetylsulfamoyl)phenyl)-3-amino-6-(3-(ethylsulfonyl)phenyl)pyrazine-2-carboxamide] | C (C=199-1000%)
CC(=O)NS(=O)(=O)c1ccc(NC(=O)c2nc(-c3ccncc3F)cnc2N)cc1 [SU20668-0374, N-(4-(N-acetylsulfamoyl)phenyl)-3-amino-6-(3-fluoropyridin-4-yl)pyrazine-2-carboxamide] | C (C=199-1000%)
COc1cc(F)c(-c2cnc(N)c(C(=O)Nc3ccc(S(=O)(=O)NC(C)=O)cc3)n2)c(F)c1 [SU20668-0375, N-(4-(N-acetylsulfamoyl)phenyl)-3-amino-6-(2,6-difluoro-4-methoxyphenyl)pyrazine-2-carboxamide] | D (D=<1000%)
CC(=O)NS(=O)(=O)c1ccc(NC(=O)c2nc(-c3csc4ccccc34)cnc2N)cc1 [SU20668-0376, N-(4-(N-acetylsulfamoyl)phenyl)-3-amino-6-(benzo[b]thiophen-3-yl)pyrazine-2-carboxamide] | C (C=199-1000%)
CC(=O)NS(=O)(=O)c1ccc(NC(=O)c2nc(-c3cccc(N4CCOCC4)c3)cnc2N)cc1 [SU20668-0377, N-(4-(N-acetylsulfamoyl)phenyl)-3-amino-6-(3-morpholinophenyl)pyrazine-2-carboxamide] | D (D=<1000%)
CC(=O)NS(=O)(=O)c1ccc(NC(=O)c2nc(-c3ccc(C)c(F)c3)cnc2N)cc1 [SU20668-0390, N-(4-(N-acetylsulfamoyl)phenyl)-3-amino-6-(3-fluoro-4-methylphenyl)pyrazine-2-carboxamide] | D (D=<1000%)
CC(=O)NS(=O)(=O)c1ccc(NC(=O)c2nc(-c3ccc(Cl)cc3)cnc2N)cc1 [SU20668-0391, N-(4-(N-acetylsulfamoyl)phenyl)-3-amino-6-(4-chlorophenyl)pyrazine-2-carboxamide] | D (D=<1000%)
CC(=O)NS(=O)(=O)c1ccc(NC(=O)c2nc(-c3ccc(OC(F)(F)F)cc3)cnc2N)cc1 [SU20668-0392, N-(4-(N-acetylsulfamoyl)phenyl)-3-amino-6-(4-(trifluoromethoxy)phenyl)pyrazine-2-carboxamide] | D (D=<1000%)
COP(=O)(CS(=O)(=O)c1ccc(NC(=O)c2nc(-c3cc(F)ccc3C#N)cnc2N)cc1)OC [SU20668-0446, dimethyl (4-(3-amino-6-(2-cyano-5-fluorophenyl)pyrazine-2-carboxamido)phenylsulfonyl)methylphosphonate] | D (D=<1000%)
COP(=O)(CS(=O)(=O)c1ccc(NC(=O)c2nc(-c3ccc(S(C)(=O)=O)cc3)cnc2N)cc1)OC [SU20668-0447, dimethyl (4-(3-amino-6-(4-(methylsulfonyl)phenyl)pyrazine-2-carboxamido)phenylsulfonyl)methylphosphonate] | D (D=<1000%)
COP(=O)(CS(=O)(=O)c1ccc(NC(=O)c2nc(-c3ccc(C)s3)cnc2N)cc1)OC [SU20668-0448, dimethyl (4-(3-amino-6-(5-methylthiophen-2-yl)pyrazine-2-carboxamido)phenylsulfonyl)methylphosphonate] | C (C=199-1000%)
COP(=O)(CS(=O)(=O)c1ccc(NC(=O)c2nc(-c3cc(F)ccc3Cl)cnc2N)cc1)OC [SU20668-0449, dimethyl (4-(3-amino-6-(2-chloro-5-fluorophenyl)pyrazine-2-carboxamido)phenylsulfonyl)methylphosphonate] | C (C=199-1000%)
COP(=O)(CS(=O)(=O)c1ccc(NC(=O)c2nc(-c3ccc(C)cc3C)cnc2N)cc1)OC [SU20668-0450, dimethyl (4-(3-amino-6-(2,4-dimethylphenyl)pyrazine-2-carboxamido)phenylsulfonyl)methylphosphonate] | D (D=<1000%)
Cc1ccc(-c2cnc(N)c(C(=O)Nc3ccc(S(=O)(=O)Nc4cc(C)on4)cc3)n2)cc1 [SU20668-0467, 3-amino-N-(4-(N-(5-methylisoxazol-3-yl)sulfamoyl)phenyl)-6-p-tolylpyrazine-2-carboxamide] | C (C=199-1000%)
Cc1ccc(-c2cnc(N)c(C(=O)Nc3ccc(S(=O)(=O)NS(C)(=O)=O)cc3)n2)cc1 [SU20668-0470, 3-amino-N-(4-(N-(methylsulfonyl)sulfamoyl)phenyl)-6-p-tolylpyrazine-2-carboxamide] | D (D=<1000%)
CCOP(=O)(CS(=O)(=O)c1ccc(NC(=O)c2nc(-c3cc(F)ccc3C#N)cnc2N)cc1)OCC [SU20668-0471, diethyl (4-(3-amino-6-(2-cyano-5-fluorophenyl)pyrazine-2-carboxamido)phenylsulfonyl)methylphosphonate] | D (D=<1000%)
CCOP(=O)(NS(=O)(=O)c1ccc(NC(=O)c2nc(-c3ccc(C)cc3)cnc2N)cc1)OCC [SU20668-0475, diethyl 4-(3-amino-6-p-tolylpyrazine-2-carboxamido)phenylsulfonylphosphoramidate] | B (B=399-2000%)
CCOP(C)(=O)COc1ccc(NC(=O)c2nc(-c3ccc(C)cc3)cnc2N)cc1 (stereo not shown) [SU20668-0476] | D (D=<1000%)
Cc1ccc(-c2cnc(N)c(C(=O)Nc3ccc(C(=O)NS(C)(=O)=O)cc3)n2)cc1 [SU20668-0478, 3-amino-N-(4-(methylsulfonylcarbamoyl)phenyl)-6-p-tolylpyrazine-2-carboxamide] | D (D=<1000%)
CCNP(=O)(CS(=O)(=O)c1ccc(NC(=O)c2nc(-c3ccc(C)cc3)cnc2N)cc1)OCC (stereo not shown) [SU20668-0480, ethyl P-(4-(3-amino-6-p-tolylpyrazine-2-carboxamido)phenylsulfonyl)methyl-N-ethylphosphonamidate] | D (D=<1000%)
